Active and inactive are the calls of the source. No cut-off for these calls is given here.
Legend:
BT-474 = experiment: Antiproliferative activity against human BT-474 cells assessed as reduction in cell viability incubated for 72 hrs by CelltiterGlo luminescent assay; details: BT-474, 72 h
CAKI-1 = experiment: Antiproliferative activity against human CAKI-1 cells assessed as reduction in cell viability incubated for 72 hrs by CelltiterGlo luminescent assay; details: CAKI-1, 72 h
[1] = Antiproliferative activity against human HEK293 cells assessed as reduction in cell viability incubated for 72 hrs by CelltiterGlo luminescent assay; type: toxicity, cell-based
MES-SA = experiment: Antiproliferative activity against human MES-SA cells assessed as reduction in cell viability incubated for 72 hrs by CelltiterGlo luminescent assay
MDA-MB-468 = experiment: cells; details: Homo sapiens, MDA-MB-468, 72 h
Description: Antiproliferative activity against human MDA-MB-468 cells assessed as reduction in cell viability incubated for 72 hrs by CelltiterGlo luminescent assay

Tubulin (Homo sapiens) = Tubulin (Homo sapiens) (UniProt P68371+Q9H4B7+P0DPH7+P68366+Q13509+Q71U36+P04350+Q3ZCM7+P07437+P68363+Q9BQE3+Q6PEY2+Q13885+Q9BVA1+Q9BUF5); experiment: Inhibition of tubulin polymerization in human MES-SA cells assessed as appearance of spherical shaped cells at 10 nM incubated for 24 hrs by DAPI staining based confocal microscopy analysis; type: cell-based
[2] = Antiproliferative activity against human Hermes 3C cells assessed as reduction in cell viability incubated for 72 hrs by CelltiterGlo luminescent assay; type: toxicity, cell-based
MCF7 = experiment: Antiproliferative activity against human MCF7 cells assessed as reduction in cell viability incubated for 72 hrs by CelltiterGlo luminescent assay; type: functional, cell-based; details: MCF7, 72 h
HT-1080 = experiment: Antiproliferative activity against human HT-1080 cells assessed as reduction in cell viability incubated for 72 hrs by CelltiterGlo luminescent assay; details: HT-1080, 72 h
[3] = Antiproliferative activity against human Melmet 5 cells assessed as reduction in cell viability incubated for 72 hrs by CelltiterGlo luminescent assay; details: Melmet 5, 72 h
A-375 = experiment: Antiproliferative activity against human A-375 cells assessed as reduction in cell viability incubated for 72 hrs by CelltiterGlo luminescent assay; details: A-375, 72 h
HeLa [4] = experiment: Antiproliferative activity against human HeLa cells assessed as reduction in cell viability incubated for 72 hrs by CelltiterGlo luminescent assay; type: functional, cell-based
[5] = Antiproliferative activity against human RPE-1 cells assessed as reduction in cell viability incubated for 72 hrs by CelltiterGlo luminescent assay; type: toxicity, cell-based; details: RPE-1 cells (TERT-RPE1)
[6] = Antiproliferative activity against human WM1366 cells assessed as reduction in cell viability incubated for 72 hrs by CelltiterGlo luminescent assay; details: WM1366, 72 h
HeLa [7] = experiment: Antiproliferative activity against human HeLa cells assessed as inhibition of cell growth incubated for 72 hrs in presence of verapamil by MTT assay; type: functional, cell-based
cells = details: Homo sapiens, MDA-MB-468, 72 h
HeLa [8] = experiment: Antiproliferative activity against human HeLa cells assessed as inhibition of cell growth incubated for 72 hrs in absence of verapamil by MTT assay; type: functional, cell-based
HeLa [9] = experiment: Antiproliferative activity against human HeLa cells assessed as reduction in cell viability incubated for 72 hrs by MTT assay; type: functional, cell-based

CC[C@]1(O)C[C@H]2CN(CCc3c([nH]c4ccccc34)[C@@](C(=O)OC)(c3cc4c(cc3OC)N(C=O)[C@H]3[C@@](O)(C(=O)OC)[C@H](OC(C)=O)[C@]5(CC)C=CCN6CC[C@]43[C@@H]65)C2)C1 [VINCRISTINE]
IC50 (BT-474): 2.9 nM
IC50 (CAKI-1): 5.7 nM
IC50 at 72 h [1]: 25.8 nM
IC50 (MES-SA): 4.9 nM
IC50 (MDA-MB-468): 0.4 nM
inhibition (Tubulin (Homo sapiens)): Active
IC50 at 72 h [2]: 2.8 nM
IC50 (MCF7): 4.2 nM
IC50 (HT-1080): 0.3 nM
IC50 [3]: 0.2 nM
IC50 (A-375): 3.5 nM
IC50 (HeLa [4]): 1 nM
IC50 at 72 h [5]: 7.6 nM
IC50 [6]: 4.5 nM

COc1cc(S(=O)(=O)Nc2ccc3c(c2)c(C(N)=O)cn3C)cc(OC)c1OC
IC50 (BT-474): 126 nM
IC50 (CAKI-1): 310 nM
IC50 (HeLa [7]): 55.4 nM
IC50 at 72 h [1]: 492 nM
IC50 (MES-SA): 99.9 nM
IC50 (MDA-MB-468): 101 nM
IC50 at 72 h [2]: 466 nM
IC50 (cells): 284 nM
IC50 (HeLa [8]): 102 nM
IC50 (HeLa [9]): 102 nM
IC50 (MCF7): 108 nM
IC50 (HT-1080): 69.2 nM
IC50 [3]: 29.5 nM
IC50 (A-375): 245 nM
IC50 (HeLa [4]): 93 nM
IC50 at 72 h [5]: 173 nM
IC50 [6]: 278 nM

COc1cc(S(=O)(=O)Nc2ccc3c(c2)C=CC3CC#N)cc(OC)c1OC (stereo unspecified)
IC50 (HeLa [9]): 2560 nM

CCOC(=O)CCCCN(c1ccc2c(ccn2C)c1)S(=O)(=O)c1cc(OC)c(OC)c(OC)c1
IC50 (HeLa [9]): > 1000 nM

COc1cc(S(=O)(=O)N(CCCCCCBr)c2ccc3c(ccn3C)c2)cc(OC)c1OC
IC50 (HeLa [9]): > 1000 nM

COc1cc(S(=O)(=O)N(CCCC(=O)O)c2ccc3c(ccn3C)c2)cc(OC)c1OC
IC50 (HeLa [9]): > 1000 nM

COc1cc(S(=O)(=O)N(Cc2ccc(N)cc2)c2ccc3c(ccn3C)c2)cc(OC)c1OC
IC50 (HeLa [9]): 464 nM

CCC1=C[C@@H]2CN(C1)Cc1c([nH]c3ccccc13)[C@@](C(=O)OC)(c1cc3c(cc1OC)N(C)[C@H]1[C@@](O)(C(=O)OC)[C@H](OC(C)=O)[C@]4(CC)C=CCN5CC[C@]31[C@@H]54)C2 [VINORELBINE]
IC50 (BT-474): 0.3 nM
IC50 (CAKI-1): 0.3 nM
IC50 at 72 h [1]: 15.9 nM
IC50 (MES-SA): 0.4 nM
IC50 (MDA-MB-468): 0.1 nM
IC50 at 72 h [2]: 0.5 nM
IC50 (MCF7): 0.8 nM
IC50 (HT-1080): 0.1 nM
IC50 [3]: 0.1 nM
IC50 (A-375): 0.6 nM
IC50 (HeLa [4]): 0.3 nM
IC50 at 72 h [5]: 9.3 nM
IC50 [6]: 0.9 nM

COc1cc(S(=O)(=O)N(CCCCN2CCOCC2)c2ccc3c(ccn3C)c2)cc(OC)c1OC
IC50 (HeLa [9]): > 1000 nM

COc1cc(S(=O)(=O)N(C)c2ccc3c(c2)c(C(=O)O)cn3C)cc(OC)c1OC
IC50 (HeLa [9]): > 1000 nM

COc1cc(S(=O)(=O)N(Cc2cccc([N+](=O)[O-])c2)c2ccc3c(ccn3C)c2)cc(OC)c1OC
IC50 (HeLa [9]): > 1000 nM

COc1cc(S(=O)(=O)N(Cc2cccc(N)c2)c2ccc3c(ccn3C)c2)cc(OC)c1OC
IC50 (HeLa [9]): > 1000 nM

CC(=O)O[C@H]1C(=O)[C@@]2(C)[C@H]([C@H](OC(=O)c3ccccc3)[C@]3(O)C[C@H](OC(=O)[C@H](O)[C@@H](NC(=O)c4ccccc4)c4ccccc4)C(C)=C1C3(C)C)[C@]1(OC(C)=O)CO[C@@H]1C[C@@H]2O [PACLITAXEL]
IC50 at 72 h [1]: 26.8 nM
IC50 at 72 h [2]: 1 nM

COc1cc(S(=O)(=O)N(C)c2ccc3c(c2)c(C=O)cn3C)cc(OC)c1OC
IC50 (BT-474): 10.6 nM
IC50 (CAKI-1): 12.9 nM
IC50 (HeLa [7]): 14.6 nM
IC50 at 72 h [1]: 50.2 nM
IC50 (MES-SA): 17.9 nM
IC50 (MDA-MB-468): 17.2 nM
IC50 at 72 h [2]: 52.8 nM
IC50 (cells): 32.9 nM
IC50 (HeLa [8]): 18.4 nM
IC50 (HeLa [9]): 16.5 nM
IC50 (MCF7): 9.3 nM
IC50 (HT-1080): 8.1 nM
IC50 [3]: 3.9 nM
IC50 (A-375): 8.7 nM
IC50 (HeLa [4]): 5.3 nM
IC50 at 72 h [5]: 12 nM
IC50 [6]: 11.6 nM

CCN(c1ccc2c(ccn2C)c1)S(=O)(=O)c1cc(OC)c(OC)c(OC)c1
IC50 (BT-474): 792 nM
IC50 (CAKI-1): 158 nM
IC50 (HeLa [7]): 105 nM
IC50 at 72 h [1]: 323 nM
IC50 (MES-SA): 148 nM
IC50 (MDA-MB-468): 161 nM
IC50 at 72 h [2]: 965 nM
IC50 (cells): 145 nM
IC50 (HeLa [8]): 123 nM
IC50 (HeLa [9]): 109 nM
IC50 (MCF7): 347 nM
IC50 (HT-1080): 104 nM
IC50 [3]: 96.2 nM
IC50 (A-375): 363 nM
IC50 (HeLa [4]): 108 nM
IC50 at 72 h [5]: 335 nM
IC50 [6]: 517 nM

COc1cc(S(=O)(=O)N(Cc2ccccc2)c2ccc3c(ccn3C)c2)cc(OC)c1OC
IC50 (HeLa [9]): > 1000 nM

CCOC(=O)CN(c1ccc2c(ccn2C)c1)S(=O)(=O)c1cc(OC)c(OC)c(OC)c1
IC50 (HeLa [9]): > 1000 nM

— ChEMBL document CHEMBL5579852, “Promising anti-proliferative indolic benzenesulfonamides alter mechanisms with sulfonamide nitrogen substituents” (Eur J Med Chem, 2024)
